According to US20260130906A1, “THERAPY COMPRISING ANTI-CD19 ANTIBODY AND SUMO-ACTIVATING ENZYME INHIBITOR” (TAKEDA PHARMACEUTICAL COMPANY LIMITED, priority 2021, published 2026):

Assays:
[1] = system: WSU-DLCL2 human xenograft tumor model; experiment: Study 3: WSU-DLCL2 human xenograft tumor model; assay type: in vivo, CB17 SCID mice; conditions: for GRI % / Tumor volume on Day 21 (±SEM): WSU-DLCL2; for GRI %: Day 21, vs vehicle; for Tumor volume on Day 21 (±SEM): in mm³ (unit assumed); for tumor growth inhibition as single agents (in words): WSU-DLCL2 human DLBCL mouse model
Method: The differences in the tumor growth trends over time between pairs of treatment groups were assessed by fitting each animal's data to a simple exponential growth model and comparing the mean growth rates of the two groups, as described in more detail below. The difference in the growth rates was summarized by the GRI, which is the reduction in growth rate experienced by the treatment group relative to that of the reference group, expressed as a fraction of the vehicle growth rate.
A GRI greater than 100% is interpreted as tumor regression when the vehicle group is the same as the reference group. A negative value of the GRI means that the tumors in the treatment group grew faster than the tumors in the reference group. Statistical significance was determined using an unpaired t-test.
Low tumor volumes can cause problems with the data analysis, so all measurements below 25 cubic mm (including 0 values) were excluded from the analysis. After this exclusion step, the tumor volume was assumed to follow an exponential growth model. […]
WSU-DLCL2 is a human DLBCL cell line. A WSU-DLCL2 human xenograft tumor model was generated by subcutaneous inoculation in the flank of 8 week old female CB17 SCID mice (Charles River Laboratories, Wilmington, MA) with 4.0×10^6 WSU-DLCL2 cells (cell suspension in 0.1 mL RPMI 1640 media). When the mean tumor volume reached approximately 200 mm^3, the animals were randomized into one vehicle control group and seven treatment groups (n=7/group) as described in Table 3a. Mice were then dosed with 20% HPβCD or Compound I-263a and/or tafasitamab over a 3 week period. In the combination treatment groups, I-263a was administered first, followed immediately by the administration of tafasitamab. Tumor growth and body weight were measured twice per week during the treatment and post-treatment periods, and mice were humanely euthanized once they had reached their humane endpoint. Tumors were measured using Vernier calipers and volumes were calculated using standard equation: V=W^2×L/2, where V=volume, W=width, and L=length for the tumor.
A 0.8625 mg/mL stock solution of I-263a was formulated weekly in 20% HPβCD and administered intravenously (IV) based on an average body weight using a 0.2 mL dosing volume. Final dose of I-263a received was 7.5 mg/kg. I-263a was administered on a BIW schedule for 3 weeks (Days 1, 4, 8, 11, 15, 18). Tafasitamab was formulated prior to each injection in 0.9% saline at 0.6 mg/mL and 2.0 mg/mL. Final dose of tafasitamab received was 3, 10, or 20 mg/kg based on average body weight. Tafasitamab was administered intraperitoneally (IP) on a BIW schedule for 3 weeks (Days 1, 4, 8, 11, 15, 18). For the 3 mg/kg dose level, 0.1 mL of the 0.6 mg/mL solution was administered. For the 10 mg/kg and 20 mg/kg dose levels, dosing volumes of the 2.0 mg/mL solution were 0.1 mL and 0.2 mL, respectively. The vehicle group received IV treatment with the vehicle for I-263a (20% HPβCD) on a BIW schedule for three weeks (Days 1, 4, 8, 11, 15, 18).
Statistical analysis for growth rate inhibition was performed on data up to and including Day 21.

lymphoma cell lines = experiment: ADCC assay (PBMC effector cells); assay type: cell-based; conditions: PBMCs pre-treated 0.1 μM TAK-981 17-24 h and/or 1 nM tafasitamab; E:T 10:1; 2 h; FIG. 1
Method: A panel of 9 aggressive lymphoma cell lines was analyzed (7 DLBCL and 2 Burkitt lymphoma). OCI-LY10 and TMD8 cells were cultured in Iscove's modified Dulbecco medium supplemented with either 20% human plasma or 10% FCS. All other cell lines were cultured in RPMI medium (Gibco) supplemented with 10%-20% FCS (Sigma). Cells were cultured at 37° C. in 5% CO2.
Whole Blood was collected from healthy volunteers. PBMCs were isolated via density-gradient centrifugation using Biocoll (Biochrome) or Pancoll (PAN Biotech) separating solution and SepMate tubes (STEMCELL Technologies).
PBMC effector cells were treated with 0.1 μM TAK-981 or DMSO as negative control for 17-24 hours. Target cells were stained with 1 μM carboxyfluorescein succinimidyl ester (CFSE). Subsequently, target cells were incubated with pre-treated PBMCs at an effector to target (E:T) ratio of 10:1 in the presence or absence of 1 nM tafasitamab for 2 hours at 37° C. and 5% CO2. Dead cells were stained with 1 μg/ml 4′,6-diamidino-2-phenylindole (DAPI) and flow cytometry was used to determine cytotoxicity against target cells: Cells were gated for viable (DAPI negative) and dead target cells (DAPI positive). The specific cytotoxicity was defined as the percentages of dead target cells in the treated sample substracted by the percentage of dead target cells in the control sample without antibody.

With “Tafasitamab: humanized monoclonal antibody that targets the antigen CD19, engineered in the IgG Fc-region to enhance ADCC; sequences in Table 1” the GRI % ([1]; tafasitamab 3 mg/kg IP BIW) was 20%, the GRI % ([1]; tafasitamab 10 mg/kg IP BIW) was 12% and the GRI % ([1]; tafasitamab 10 mg/kg IP BIW, listed as tafasitamab) was “did not result in significant growth rate inhibition”. For the same molecule, the GRI % ([1]; tafasitamab 20 mg/kg IP BIW) was 2%, the GRI % ([1]; tafasitamab 20 mg/kg IP BIW, listed as tafasitamab) was “did not result in significant growth rate inhibition” and the “Tumor volume on Day 21 (±SEM)” value ([1]; tafasitamab 3 mg/kg IP BIW 3 weeks) was 1197.3 ± 168.3. For the same molecule, the “Tumor volume on Day 21 (±SEM)” value ([1]; tafasitamab 10 mg/kg IP BIW 3 weeks) was 1494.3 ± 126.3, the “Tumor volume on Day 21 (±SEM)” value ([1]; tafasitamab 20 mg/kg IP BIW 3 weeks) was 1519.0 ± 110.8 and the “tumor growth inhibition as single agents (in words)” value [1] was “do not show significant or extensive tumor growth inhibition”. For the same molecule, the “Specific killing of lymphoma cell lines (specific cytotoxicity)” value (lymphoma cell lines) was “resulted in specific killing”.
With Cc1sc(C(=O)c2cncnc2N[C@@H]2C[C@H](COS(N)(=O)=O)[C@@H](O)C2)cc1[C@@H]1NCCc2ccc(Cl)cc21 [Compound I-263a, [(1R,2S,4R)-4-{[5-({4-[(1R)-7-chloro-1,2,3,4-tetrahydroisoquinolin-1-yl]-5-methyl-2-thienyl}carbonyl)pyrimidin-4-yl]amino}-2-hydroxycyclopentyl]methyl sulfamate] the GRI % ([1]; I-263a 7.5 mg/kg IV BIW, 7.5 mg/kg) was 14%, the GRI % ([1]; I-263a 7.5 mg/kg IV BIW, listed as TAK-981) was “did not result in significant growth rate inhibition” and the “Tumor volume on Day 21 (±SEM)” value ([1]; I-263a 7.5 mg/kg IV BIW 3 weeks) was 1410.7 ± 155.8. The “tumor growth inhibition as single agents (in words)” value [1] was “do not show significant or extensive tumor growth inhibition” and the “Specific killing of lymphoma cell lines (specific cytotoxicity)” value (lymphoma cell lines) was “resulted in specific killing”.
